One series deals with Leishmania infantum. Kind of series: Antileishmanial activity against promastigote form of Leishmania infantum infected in BALB/c mouse assessed as reduction in parasite growth at 2.5 mg/kg, po administered once for every two days for 10 days. The format is functional, organism-based.
A short description of series [1]: (§1) Cytotoxicity against BALB/c mouse macrophage assessed as cell viability measured after 48 hrs by MTT assay. Format: toxicity, cell-based. The note with it: BALB/c, mouse macrophages. For orientation: Tetrazolium assays rely on reduction of a dye to a coloured formazan, in cell work by metabolically active cells.
Series [2] in a line: Selectivity index, ratio of CC50 for cytotoxicity against BALB/c mouse macrophages to IC50 for antileishmanial activity against promastigote form of Leishmania infantum infected in BALB/c mouse. Format: toxicity.
Series [3] deals with Trypanosoma cruzi. As to the kind of experiment: Antitrypanosomal activity against Trypanosoma cruzi Y strain amastigotes. Format: functional, organism-based.
The test system of series [4] is Trypanosoma cruzi. As to the kind of experiment: Antitrypanosomal activity against Trypanosoma cruzi Y strain trypomastigotes. Format: functional, organism-based.
Series [5] deals with Trypanosoma cruzi. As to the kind of experiment: Antitrypanosomal activity against Trypanosoma cruzi Y strain intracellular epimastigotes assessed as viability of intracellular epimastigote measured after 5 days. Format: functional, organism-based.
Series [6] can be described thus: Acute toxicity in Beagle dog assessed as lethal dose. Particulars: in vivo. Also noted: species or system Canis lupus familiaris.
A short description of series [7]: Toxicity in mouse assessed as lethal dose. The note with it: in vivo.
The subject of the next series is Macrophage. The series is described as §1. Format: toxicity, cell-based. The note with it: macrophage, 48 h.
The test system of a further series is Trypanosoma evansi. As to the kind of experiment: Antitrypanosomal activity against Trypanosoma evansi. The format is functional, organism-based.

The values that follow come from ChEMBL document CHEMBL5335791, “Antiparasitic activity of ivermectin: Four decades of research into a "wonder drug"” (Eur J Med Chem, 2023).

A word on the IC50: it is the midpoint of a concentration-inhibition curve. In general, CC50 refers to the concentration at which the toxic effect on the cells reaches its halfway point. By EC50 is commonly meant the concentration needed to bring the measured effect to its halfway point. For orientation: LD50 means the dose expected to kill half of the subjects tested.

`C[C@@H]1[C@H](O)[C@@H](C)/C=C/C=C/C=C/C=C/C=C/C=C/C=C/[C@H](O[C@@H]2O[C@H](C)[C@@H](O)[C@H](N)[C@@H]2O)C[C@@H]2O[C@](O)(C[C@@H](O)C[C@@H](O)[C@H](O)CC[C@@H](O)C[C@@H](O)CC(=O)O[C@H]1C)C[C@H](O)[C@H]2C(=O)O` [AMPHOTERICIN B]: in the series with Leishmania infantum (Leishmania infantum), the IC50 is 0.12 µM. In addition, the CC50 at 48 h in series [1] came to 1.06 µM. The selectivity ratio in series [2] (BALB/c, mouse macrophages, read-out: Ratio CC50/IC50) was around 9.

In the case of IVERMECTIN, the EC50 was 0.3 µM in the series with Trypanosoma cruzi [3], 12.5 µM with Trypanosoma cruzi [4] and 5.3 µM in the series with Trypanosoma cruzi [5]. Also, the LD50 in [6] is 80 mg/kg; in [7] it was 0.2 mg/kg. Besides, the results for the IC50 with Leishmania infantum and in the series on Trypanosoma evansi were 3.64 µM and 13.8 µM, respectively. Also, the CC50 with Macrophage came to 428 µM. Also, in series [2], the “Ratio CC50/IC50” value was found to be 117.
